Measurements published in the supplement of paper PMC11665569.
± gives the standard deviation of the averaged measurements.

Legend:
Details in all cases: treatment time: 5 days
H1373 [1] = tested on: H1373
Description: (§1)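 CCK-8 viability of KRAS G12C-mutant cancer cell lines transfected with control, YAP/TAZ or TEAD1-4 siRNAs and treated with KRAS G12C inhibitors for 5 days; IC50 fitted in Prism after normalising absorbance at 450 nm to vehicle control.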

H1792 = tested on: H1792
Description: as §1

H2030 = tested on: H2030
Description: as §1

H358 = tested on: H358
Description: as §1

KYSE410 = tested on: KYSE410
Description: as §1

MIAPACA2 = tested on: MIAPACA2
Description: as §1

SW1573 [2] = tested on: SW1573
Description: as §1

SW1573 [3] = assay: relative viability (fraction of vehicle control); higher = more viable / less inhibited
Description: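 CCK-8 viability of SW1573 cells transfected with control, YAP/TAZ or TEAD1-4 siRNAs and treated with KRAS G12C inhibitors for 5 days. Values are normalised to vehicle control.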

H1373 [4] = assay: as above
Description: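 CCK-8 viability of H1373 cells with empty vector or constitutively active YAP S127A, treated with KRAS G12C inhibitors for 5 days, normalised to vehicle control.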

C=CC(=O)N1CCN(c2ncnc3c(F)c(-c4c(O)cccc4F)c(Cl)cc23)CC1 [ARS1620]
Details	IC50 (cell viability, 5 days) [µM]	relative viability
H358, siRNA knockdown (Con = control): Con	0.4	–
H358, siRNA knockdown (Con = control): TEAD1234_si1	0.366	–
H358, siRNA knockdown (Con = control): TEAD1234_si2	0.228	–
H358, siRNA knockdown (Con = control): YAP_WWTR1_si1	0.183	–
H358, siRNA knockdown (Con = control): YAP_WWTR1_si2	0.135	–
H1373 [1], siRNA knockdown (Con = control): Con	1.95	–
H1373 [1], siRNA knockdown (Con = control): YAP_WWTR1_si1	0.58	–
H1373 [1], siRNA knockdown (Con = control): YAP_WWTR1_si2	0.305	–
H1373 [4], log10 concentration (uM): 0, ectopic expression: YAP S127A	–	0.7325 ± 0.0061
H1373 [4], log10 concentration (uM): 0, ectopic expression: empty vector (YAP experiment)	–	0.658 ± 0.035
H1373 [4], log10 concentration (uM): 0.39794, ectopic expression: YAP S127A	–	0.627 ± 0.046
H1373 [4], log10 concentration (uM): 0.39794, ectopic expression: empty vector (YAP experiment)	–	0.504 ± 0.023
H1373 [4], log10 concentration (uM): 0.69897, ectopic expression: YAP S127A	–	0.564 ± 0.049
H1373 [4], log10 concentration (uM): 0.69897, ectopic expression: empty vector (YAP experiment)	–	0.413 ± 0.07
H1373 [4], log10 concentration (uM): 1, ectopic expression: YAP S127A	–	0.545 ± 0.062
H1373 [4], log10 concentration (uM): 1, ectopic expression: empty vector (YAP experiment)	–	0.329 ± 0.021
H1373 [4], log10 concentration (uM): 1.301029996, ectopic expression: YAP S127A	–	0.413 ± 0.012
H1373 [4], log10 concentration (uM): 1.301029996, ectopic expression: empty vector (YAP experiment)	–	0.26 ± 0.015
H1373 [4], log10 concentration (uM): -0.30103, ectopic expression: YAP S127A	–	0.811 ± 0.049
H1373 [4], log10 concentration (uM): -0.30103, ectopic expression: empty vector (YAP experiment)	–	0.862 ± 0.041
H1373 [4], log10 concentration (uM): -0.60206, ectopic expression: YAP S127A	–	0.866 ± 0.036
H1373 [4], log10 concentration (uM): -0.60206, ectopic expression: empty vector (YAP experiment)	–	0.847 ± 0.13
H1373 [4], log10 concentration (uM): -1, ectopic expression: YAP S127A	–	0.933 ± 0.051
H1373 [4], log10 concentration (uM): -1, ectopic expression: empty vector (YAP experiment)	–	0.917 ± 0.077
H1373 [4], log10 concentration (uM): -2, ectopic expression: YAP S127A	–	1 ± 0.047
H1373 [4], log10 concentration (uM): -2, ectopic expression: empty vector (YAP experiment)	–	0.989 ± 0.054
H1792, siRNA knockdown (Con = control): Con	1.96	–
H1792, siRNA knockdown (Con = control): YAP_WWTR1_si1	0.59	–
H1792, siRNA knockdown (Con = control): YAP_WWTR1_si2	0.472	–
H2030, siRNA knockdown (Con = control): Con	9.87	–
H2030, siRNA knockdown (Con = control): TEAD1234_si1	1.05	–
H2030, siRNA knockdown (Con = control): TEAD1234_si2	0.237	–
KYSE410, siRNA knockdown (Con = control): Con	4.24	–
KYSE410, siRNA knockdown (Con = control): TEAD1234_si1	1.05	–
KYSE410, siRNA knockdown (Con = control): TEAD1234_si2	1.07	–
KYSE410, siRNA knockdown (Con = control): YAP_WWTR1_si1	1.68	–
KYSE410, siRNA knockdown (Con = control): YAP_WWTR1_si2	1.19	–
MIAPACA2, siRNA knockdown (Con = control): Con	10.4	–
MIAPACA2, siRNA knockdown (Con = control): TEAD1234_si1	5.67	–
MIAPACA2, siRNA knockdown (Con = control): TEAD1234_si2	5.42	–
MIAPACA2, siRNA knockdown (Con = control): YAP_WWTR1_si1	4.42	–
MIAPACA2, siRNA knockdown (Con = control): YAP_WWTR1_si2	6.97	–
SW1573 [2], siRNA knockdown (Con = control): Con	13.2	–
SW1573 [2], siRNA knockdown (Con = control): TEAD1234_si1	0.342	–
SW1573 [2], siRNA knockdown (Con = control): TEAD1234_si2	0.164	–
SW1573 [2], siRNA knockdown (Con = control): YAP_WWTR1_si1	0.1	–
SW1573 [2], siRNA knockdown (Con = control): YAP_WWTR1_si2	0.132	–
SW1573 [3], log10 concentration (uM): 0, siRNA knockdown: TEAD1-4 siRNA 1	–	0.394 ± 0.013
SW1573 [3], log10 concentration (uM): 0, siRNA knockdown: TEAD1-4 siRNA 2	–	0.45 ± 0.089
SW1573 [3], log10 concentration (uM): 0, siRNA knockdown: YAP/TAZ siRNA 1	–	0.174 ± 0.025
SW1573 [3], log10 concentration (uM): 0, siRNA knockdown: YAP/TAZ siRNA 2	–	0.156 ± 0.018
SW1573 [3], log10 concentration (uM): 0, siRNA knockdown: negative control siRNA	–	0.929 ± 0.035
SW1573 [3], log10 concentration (uM): 0.39794, siRNA knockdown: TEAD1-4 siRNA 1	–	0.297 ± 0.011
SW1573 [3], log10 concentration (uM): 0.39794, siRNA knockdown: TEAD1-4 siRNA 2	–	0.376 ± 0.026
SW1573 [3], log10 concentration (uM): 0.39794, siRNA knockdown: YAP/TAZ siRNA 1	–	0.172 ± 0.013
SW1573 [3], log10 concentration (uM): 0.39794, siRNA knockdown: YAP/TAZ siRNA 2	–	0.15 ± 0.012
SW1573 [3], log10 concentration (uM): 0.39794, siRNA knockdown: negative control siRNA	–	0.952 ± 0.036
SW1573 [3], log10 concentration (uM): 0.69897, siRNA knockdown: TEAD1-4 siRNA 1	–	0.273 ± 0.021
SW1573 [3], log10 concentration (uM): 0.69897, siRNA knockdown: TEAD1-4 siRNA 2	–	0.381 ± 0.067
SW1573 [3], log10 concentration (uM): 0.69897, siRNA knockdown: YAP/TAZ siRNA 1	–	0.186 ± 0.025
SW1573 [3], log10 concentration (uM): 0.69897, siRNA knockdown: YAP/TAZ siRNA 2	–	0.175 ± 0.012
SW1573 [3], log10 concentration (uM): 0.69897, siRNA knockdown: negative control siRNA	–	0.952 ± 0.052
SW1573 [3], log10 concentration (uM): 1, siRNA knockdown: TEAD1-4 siRNA 1	–	0.189 ± 0.011
SW1573 [3], log10 concentration (uM): 1, siRNA knockdown: TEAD1-4 siRNA 2	–	0.351 ± 0.023
SW1573 [3], log10 concentration (uM): 1, siRNA knockdown: YAP/TAZ siRNA 1	–	0.2 ± 0.013
SW1573 [3], log10 concentration (uM): 1, siRNA knockdown: YAP/TAZ siRNA 2	–	0.182 ± 0.006
SW1573 [3], log10 concentration (uM): 1, siRNA knockdown: negative control siRNA	–	0.94 ± 0.054
SW1573 [3], log10 concentration (uM): 1.301029996, siRNA knockdown: TEAD1-4 siRNA 1	–	0.0763 ± 0.0018
SW1573 [3], log10 concentration (uM): 1.301029996, siRNA knockdown: TEAD1-4 siRNA 2	–	0.233 ± 0.023
SW1573 [3], log10 concentration (uM): 1.301029996, siRNA knockdown: YAP/TAZ siRNA 1	–	0.136 ± 0.0089
SW1573 [3], log10 concentration (uM): 1.301029996, siRNA knockdown: YAP/TAZ siRNA 2	–	0.139 ± 0.003
SW1573 [3], log10 concentration (uM): 1.301029996, siRNA knockdown: negative control siRNA	–	0.464 ± 0.11
SW1573 [3], log10 concentration (uM): -0.30103, siRNA knockdown: TEAD1-4 siRNA 1	–	0.413 ± 0.051
SW1573 [3], log10 concentration (uM): -0.30103, siRNA knockdown: TEAD1-4 siRNA 2	–	0.47 ± 0.062
SW1573 [3], log10 concentration (uM): -0.30103, siRNA knockdown: YAP/TAZ siRNA 1	–	0.236 ± 0.013
SW1573 [3], log10 concentration (uM): -0.30103, siRNA knockdown: YAP/TAZ siRNA 2	–	0.209 ± 0.018
SW1573 [3], log10 concentration (uM): -0.30103, siRNA knockdown: negative control siRNA	–	0.908 ± 0.02
SW1573 [3], log10 concentration (uM): -0.60206, siRNA knockdown: TEAD1-4 siRNA 1	–	0.655 ± 0.054
SW1573 [3], log10 concentration (uM): -0.60206, siRNA knockdown: TEAD1-4 siRNA 2	–	0.614 ± 0.015
SW1573 [3], log10 concentration (uM): -0.60206, siRNA knockdown: YAP/TAZ siRNA 1	–	0.29 ± 0.028
SW1573 [3], log10 concentration (uM): -0.60206, siRNA knockdown: YAP/TAZ siRNA 2	–	0.306 ± 0.013
SW1573 [3], log10 concentration (uM): -0.60206, siRNA knockdown: negative control siRNA	–	0.964 ± 0.049
SW1573 [3], log10 concentration (uM): -1, siRNA knockdown: TEAD1-4 siRNA 1	–	0.683 ± 0.081
SW1573 [3], log10 concentration (uM): -1, siRNA knockdown: TEAD1-4 siRNA 2	–	0.614 ± 0.065
SW1573 [3], log10 concentration (uM): -1, siRNA knockdown: YAP/TAZ siRNA 1	–	0.41 ± 0.029
SW1573 [3], log10 concentration (uM): -1, siRNA knockdown: YAP/TAZ siRNA 2	–	0.417 ± 0.019
SW1573 [3], log10 concentration (uM): -1, siRNA knockdown: negative control siRNA	–	0.976 ± 0.022
SW1573 [3], log10 concentration (uM): -2, siRNA knockdown: TEAD1-4 siRNA 1	–	0.9354 ± 0.0084
SW1573 [3], log10 concentration (uM): -2, siRNA knockdown: TEAD1-4 siRNA 2	–	1.01 ± 0.12
SW1573 [3], log10 concentration (uM): -2, siRNA knockdown: YAP/TAZ siRNA 1	–	0.817 ± 0.014
SW1573 [3], log10 concentration (uM): -2, siRNA knockdown: YAP/TAZ siRNA 2	–	0.82 ± 0.018
SW1573 [3], log10 concentration (uM): -2, siRNA knockdown: negative control siRNA	–	1.02 ± 0.045
